Test results as given in BindingDB's records for doi:10.1016/j.bmcl.2011.11.008 (Korea Research Institute of Bioscience and Biotechnology, 2011).

Key:
[1] = Inhibition of PRL-3-mediated cell migration in human DLD1 cells after 15 hrs by crystal violet staining based microscopic assay
[2] = Inhibition of PRL-3-mediated cell invasion in human DLD1 cells after 20 hrs using crystal violet staining by Matrigel invasion assay

`Cc1cc(O)c2c(c1)C(=O)c1cc(O)cc(O)c1C2=O` [1,3,8-trihydroxy-6-methylanthra-9,10-quinone] showed an IC50 [1] of 28 µM and an IC50 [2] of 35 µM.
